From patent publication US9657062B2, “Ghrelin analogues” (Zealand Pharma A/S, priority 2012, dated 2017)
Where a SMILES comes first, the peptide text is derived from it. The star is where a group is joined. Octyl = CCCCCCCC*

Columns and labels:
[1] = molecular target: T1, human ghrelin receptor (GHSR1a) (Homo sapiens, UniProt Q92847); assay: Ghrelin receptor functional assay (Ca2+ induction, Fluo-4, FLIPR) in HEK293 cells stably expressing the human ghrelin receptor; type: cell-based; conditions: HEK293 cell line stably expressing human GHSR1a
T1 construct: expressed in transfected cells; plasmid pIRESneo2dNGFR
T1 sequence (Q92847 whole entry): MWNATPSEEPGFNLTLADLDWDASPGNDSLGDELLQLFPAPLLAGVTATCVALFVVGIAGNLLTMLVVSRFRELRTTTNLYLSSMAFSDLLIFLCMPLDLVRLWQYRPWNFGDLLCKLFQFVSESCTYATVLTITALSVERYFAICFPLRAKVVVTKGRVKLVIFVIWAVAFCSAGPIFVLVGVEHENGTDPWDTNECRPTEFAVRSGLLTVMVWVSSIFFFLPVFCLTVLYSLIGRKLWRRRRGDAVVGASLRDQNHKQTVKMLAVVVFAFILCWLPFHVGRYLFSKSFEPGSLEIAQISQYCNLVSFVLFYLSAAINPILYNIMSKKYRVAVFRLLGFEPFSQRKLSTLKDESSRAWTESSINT
Description: To test activation of the ghrelin receptor, stable cell lines expressing the human ghrelin receptor were produced. In brief, HEK293 cells were used for transfection of the cDNA for human ghrelin receptor cloned into the transfection plasmid pIRESneo2dNGFR. […] The DNA encoding the ghrelin receptor was amplified by PCR using primers also encoding terminal restriction sites for subcloning. The ghrelin receptor was subcloned into a mammalian expression vector containing a neomycin (G418) resistance marker. The fidelity of the DNA encoding the receptor was confirmed by DNA sequencing. HEK293 cells were used for transfection of the ghrelin receptor expression plasmid. The cells were grown according to standard protocol in growth medium and transfected with the plasmids using Lipofectamin (Invitrogen) according to the manufacturer's protocol. […]
The plate with test compounds was pre-warmed before starting the measurements. […] The program measures basal level of fluorescence of Fluo-4 for 10 seconds, adds 100 μl of peptide solution to the cells and measures the change in fluorescence as a consequence of the changes in Ca^2+ concentration in the cells. The output used for calculation of activity was selected to be the maximal response (expressed as a ratio to the basal level. EC50 values) and maximal response values were determined based on these values.

[2] = test system: normal chow-fed C57BL/6J male mice; assay: Effect on food intake in normal mice (HM-2 automated monitoring); type: in vivo, mouse; conditions: 300 nmol/kg s.c. once, light phase 0-6 h, modified protocol (food access re-opened 2 h after dosing)
Description: Normal chow-fed C57BL/6J male mice were used. The mice were kept in an automated food- and water-intake monitoring system (HM-2) which allows automated on-line measurements of accumulated food intake (FI) and other parameters. Food intake was monitored by the HM-2 system up to 24 h after dosing. The mice were kept 6 per cage, and each dosing group consisted of 6 animals.
In the initial experimental set-up with ghrelin as test compound, animals were allowed free access to food directly after treatment, and the resulting data for food intake are shown in FIG. 1A herein (vide infra).
In order to further investigate the “duration of action” of ghrelin and the other test compounds a new protocol was defined. In the modified protocol the gate to the food chambers was closed prior to dosing with vehicle or test compound and was re-opened 2 hours thereafter. The resulting data for food intake following dosing with ghrelin or vehicle are summarized in FIG. 1B (vide infra), while the corresponding data for food intake following dosing with each of the of the other four test compounds. (Compound 16, 22, 23 or 43 of the invention) or with vehicle are summarized in FIG. 2A (data for monitoring up to 6 hours after dosing) and FIG. 2B (data for monitoring up to 24 hours after dosing).

Row | SMILES | EC50 [1] [nM] | Accumulated FI at 6h [2] [g]
1 | CC(C)C[C@H](NC(=O)[C@H](CCCCN)NC(=O)[C@H](C)NC(=O)[C@@H]1CCCN1C(=O)[C@@H]1CCCN1C(=O)[C@H](CCCCN)NC(=O)[C@H](CCCCN)NC(=O)[C@H](CO)NC(=O)[C@H](CCC(=O)O)NC(=O)[C@H](CCCCN)NC(=O)[C@H](CCCNC(=N)N)NC(=O)[C@H](CCC(N)=O)NC(=O)[C@H](CCC(N)=O)NC(=O)[C@H](C)NC(=O)[C@H](CCCCN)NC(=O)[C@H](CCC(N)=O)NC(=O)[C@H](Cc1c[nH]cn1)NC(=O)[C@H](CCC(=O)O)NC(=O)[C@@H]1CCCN1C(=O)[C@H](CO)NC(=O)[C@H](CC(C)C)NC(=O)[C@H](Cc1ccccc1)NC(=O)[C@H](CO)NC(=O)[C@H](CO)NC(=O)CN)C(=O)N[C@@H](CCC(N)=O)C(=O)N1CCC[C@H]1C(=O)N[C@@H](CCCNC(=N)N)C(=O)O [Compound 4, reference compound] | > 1000 | 
2 | CCCCCCCCOC[C@H](NC(=O)[C@H](CO)NC(=O)[C@@H]1CCCN1)C(=O)N[C@@H](Cc1ccccc1)C(=O)N[C@@H](CC(C)C)C(=O)N[C@@H](CO)C(=O)N1CCC[C@H]1C(=O)N[C@@H](CCC(=O)O)C(=O)N[C@@H](Cc1c[nH]cn1)C(=O)N[C@@H](CCC(N)=O)C(=O)N[C@@H](CCCNC(=N)N)C(=O)N[C@H](C(=O)N[C@@H](CCC(N)=O)C(=O)N[C@@H](CCCNC(=N)N)C(=O)N[C@@H](CCCCN)C(=O)N[C@@H](CCC(=O)O)C(=O)N[C@@H](CO)C(=O)N[C@@H](CCCCN)C(=O)N[C@@H](CCCCN)C(=O)N1CCC[C@H]1C(=O)N1CCC[C@H]1C(=O)N[C@@H](C)C(=O)N[C@@H](CCCCN)C(=O)N[C@@H](CC(C)C)C(=O)N[C@@H](CCC(N)=O)C(=O)N1CCC[C@H]1C(=O)N[C@@H](CCCNC(=N)N)C(N)=O)C(C)C [Compound 38] (H-PSS(Octyl)FLSPEHQRVQRKESKKPPAKLQPR-NH2) | 0.33 | 
3 | CCCCCCCCOC[C@H](NC(=O)[C@H](CO)NC(=O)[C@@H]1CCCN1)C(=O)N[C@@H](Cc1ccccc1)C(=O)N[C@@H](CC(C)C)C(=O)N[C@@H](CO)C(=O)N1CCC[C@H]1C(=O)N[C@@H](CCC(=O)O)C(=O)N[C@@H](Cc1c[nH]cn1)C(=O)N[C@@H](CO)C(=O)N[C@@H](CCCNC(=N)N)C(=O)N1CCC[C@H]1C(=O)N[C@@H](CO)C(=O)N[C@@H](CO)C(=O)N[C@@H](CCCNC(=N)N)C(N)=O [Compound 48] (H-PSS(Octyl)FLSPEHSRPSSR-NH2) |  | 0 ± 0
